Literature values in US9150582B2, “Composition and method for neuropeptide S receptor (NPSR) antagonists” (RESEARCH TRIANGLE INSTITUTE, priority 2011, dated 2015).
“Also recorded” adds a separate entry of the source.

Tests used:
NPSR Ile^107 variant = target: T1, NPSR Ile^107 variant (Homo sapiens, UniProt Q6W5P4, N107I); conditions: calcium flux
T1 sequence (Q6W5P4 1-371 N107I): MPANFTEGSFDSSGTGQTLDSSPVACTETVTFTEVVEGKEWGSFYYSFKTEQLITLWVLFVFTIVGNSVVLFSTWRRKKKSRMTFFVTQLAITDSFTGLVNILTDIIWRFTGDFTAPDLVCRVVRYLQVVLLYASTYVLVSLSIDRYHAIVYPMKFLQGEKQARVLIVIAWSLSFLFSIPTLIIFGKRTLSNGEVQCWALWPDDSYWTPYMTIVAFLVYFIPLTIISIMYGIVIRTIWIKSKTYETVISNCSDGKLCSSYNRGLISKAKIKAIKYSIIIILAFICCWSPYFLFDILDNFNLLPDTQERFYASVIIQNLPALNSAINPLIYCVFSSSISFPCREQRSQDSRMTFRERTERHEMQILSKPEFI

NPSR-C0Alt = target: T2, NPSR-C0Alt (Homo sapiens, UniProt Q6W5P4); conditions: functional assay
T2 sequence (Q6W5P4 1-377 isoform Q6W5P4-4): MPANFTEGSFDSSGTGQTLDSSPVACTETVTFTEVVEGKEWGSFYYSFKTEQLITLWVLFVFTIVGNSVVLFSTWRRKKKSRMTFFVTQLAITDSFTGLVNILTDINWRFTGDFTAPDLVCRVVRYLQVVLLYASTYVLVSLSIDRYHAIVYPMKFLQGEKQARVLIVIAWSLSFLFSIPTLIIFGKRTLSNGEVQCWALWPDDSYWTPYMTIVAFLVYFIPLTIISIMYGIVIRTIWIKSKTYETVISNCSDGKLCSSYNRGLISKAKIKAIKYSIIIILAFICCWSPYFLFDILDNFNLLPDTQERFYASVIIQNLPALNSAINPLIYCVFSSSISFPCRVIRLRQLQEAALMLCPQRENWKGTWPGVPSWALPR

mice [1] = conditions: i.c.v., habituated and naive mice
mice [2] = conditions: elevated plus maze, light dark box, marble burying
mice [3] = conditions: 0.1 nMol NPS
mice [4] = conditions: i.c.v.
[5] = i.c.v.
mice [6] = system: mice
[7] = system: basolateral amygdala (BLA); conditions: 0.1 nM injected into BLA

NPS: Human Neuropeptide S, 20 residue peptide SFRNGVGTGMKKTSFQRAKS (SEQ ID NO: 1), agonist of NPSR (Human)
enhancement in functional sensitivity, Ile107 variant over Asn107 (NPSR Ile^107 variant): five to ten fold enhancement | potency at NPSR-C0Alt, lower versus the 107I variant (NPSR-C0Alt): 30 fold | locomotor activity (mice [1]): increased locomotor activity; also recorded: increase in locomotor activity | anxiolytic-like behaviors (mice [2]): anxiolytic-like behaviors | amount of stage 1 and 2 slow wave sleep and REM sleep (mice [3]; compared to saline): significantly reduced | first hour of wakefulness (mice [3]; mice, saline 45%): 69% | formerly extinguished cocaine seeking behaviors (mice [4]): dose-dependently increased | performance in novel recognition assays [5]: dose-dependently improves performance | fear response (freezing behavior), administration pre-testing (mice [6]; NPS given pre-testing): decreased the fear response | fear response, administration pre-training (mice [6]; NPS given pre-training): no effect on fear response | anxiolytic activity at low dose [7]: No anxiolytic activity was observed | contextual fear memories [7]: significantly reduced contextual fear memories
